# Measurements as given in US20070249562A1, “TREATMENT OF ATRIAL FIBRILLATION” (priority 2006, published 2007).
# Key:
# [1] = in water, alcohol, and ether; cited from earlier work
# [2] = test system: ATP induced calcium ion influx into cells (P2X purinoceptors); conditions: a recent evaluation; suggested due to inhibition of P2X purinoceptors; cited from earlier work
# [3] = test system: Atrial Fibrillation; test: Randomized, double-blind placebo-controlled study in high-risk CABG patients; atrial fibrillation by 12-lead ECG; format: in vivo, human; conditions: for Reduction of AF compared to placebo: from POD 4 to POD 90
# Text: A randomized, double-blind placebo-controlled, dose-ranging, parallel-arm multi-center study was undertaken, on high-risk patients undergoing CABG surgery with cardiopulmonary bypass. Patients were identified as “high risk” if they had two or more of the following risk factors: • Age greater than 65 years • Current smoker • History of diabetes mellitus requiring treatment other than diet • Evidence of left ventricular dysfunction or congestive heart failure • History of a previous non-disabling stroke, transient ischemic attack, or carotid endarterectomy • Urgent CABG intervention defined as the need to stay in the hospital (although the patient may be operated on within a normal scheduling routine). • History of myocardial infarction that occurred more than 48 hours but less than 6 weeks prior to CABG surgery • Prior peripheral artery surgery or angioplasty • Moderate renal dysfunction defined as […] >133 μmol/L (1.5 mg/dl), but <250 μmol/L (2.8 mg/dl) • Presence of at least one asymptomatic carotid artery stenosis (>50% ) either in one or two carotid arteries. Approximately 900 high risk pre-CABG patients in 42 different treatment centers in North America were screened and randomized to three groups of approximately 300 patients each, prior to their bypass surgery, as follows. Patients were either placed in a control group (placebo), treated with 250 mg/day of pyridoxal-5′-phosphate, (250 mg/day), or treated with 750 mg day of pyridoxal-5′-phosphate (750 mg/day). The first dose of study medication was administered at 3-10 hours prior to CABG surgery. In the event of surgery delay or rescheduling, a second pre-operative dose of pyridoxal-5′-phosphate was administered so that all patients received study medication 3-10 hours before surgery. Treatment continued for 30 days after surgery (post operative day (POD) 30). Patients received follow-up evaluations up to and including postoperative day (POD) 4, on POD 30 and on POD 90. 12-lead ECG were taken at baseline (Pre-Op), POD 2, POD 4, POD 30 and POD 90 with patients on placebo, 250 mg/day pyridoxal-5′-phosphate (P5P), and 750 mg/day pyridoxal-5′-phosphate. The data from baseline, POD 4 and POD 90 were analyzed.
structure (smiles),measurement,setting,value
"Cc1ncc(COP(=O)(O)O)c(C=O)c1O [pyridoxal-5′-phosphate, 3-hydroxy-2-methyl-5-[(phosphonooxy)methyl]-4-pyridine-carboxaldehyde]",Solubility,[1],essentially insoluble
same,Effect on ATP induced calcium ion influx into cells,[2],inhibits
same,Reduction of AF compared to placebo,"[3]; 250 mg dose, p=0.0084",51.75%
same,Reduction of AF compared to placebo,"[3]; 750 mg dose, p=0.013",49.08%
same,Number of patients who had AF at POD 4,[3]; 250 mg/day P5P (n = 301),56
same,Percent of patients who had AF at POD 4,[3]; 250 mg/day P5P (n = 301),18.60%
same,Number of patients who had AF at POD 4,[3]; 750 mg/day P5P (n = 302),63
same,Percent of patients who had AF at POD 4,[3]; 750 mg/day P5P (n = 302),20.86%
same,Number of patient who had AF at POD 90,[3]; 250 mg/day P5P (n = 301),17
same,Percent of patient who had AF at POD 90,[3]; 250 mg/day P5P (n = 301),5.65%
same,Number of patient who had AF at POD 90,[3]; 750 mg/day P5P (n = 302),18
same,Percent of patient who had AF at POD 90,[3]; 750 mg/day P5P (n = 302),5.96%
